Experimental data published in patent publication US10570131B2, “Heterocyclic compounds and their use in preventing or treating bacterial infections” (MUTABILIS, priority 2015, dated 2020).
Counter-ions that a name gives are not always drawn.

Key:
Assay type in all cases: cell-based
E. coli UFR52 [1] = experiment: MIC of ceftazidime alone and in combination with compounds (synergy), broth microdilution; conditions: MIC of ceftazidime with compound fixed at 4 μg/mL; strain UFR52 (TEM-1, SHV-12, IMP-8)
P. aeruginosa UFR47 [2] = experiment: as above; conditions: MIC of ceftazidime with compound fixed at 4 μg/mL; strain UFR47 (VIM-1)
P. aeruginosa UFR93 [3] = experiment: as above; conditions: MIC of ceftazidime with compound fixed at 4 μg/mL; strain UFR93 (derepressed AmpC, OprD−, MexAB+, MexXY+)
P. aeruginosa UFR48 [4] = experiment: as above; conditions: MIC of ceftazidime with compound fixed at 4 μg/mL; strain UFR48 (VIM-2)
Method in brief: (§1)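 Synergy with ceftazidime and activity alone are measured by microdilution in cation-adjusted Mueller-Hinton broth. Inoculum is 5×10^5 cfu/mL; incubation 16-20 h at 35° C.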

P. aeruginosa UFR90 = experiment: MIC of compounds alone, broth microdilution; conditions: Pseudomonas aeruginosa, UFR90, read-out: MIC compounds of the invention alone
Method in brief: as §1

E. coli UFR52 [5] = experiment: MIC of compounds alone, broth microdilution; conditions: Escherichia coli, UFR52, read-out: MIC compounds of the invention alone
Method in brief: as §1

K. pneumoniae 200047 = experiment: MIC of compounds alone, broth microdilution; conditions: Klebsiella pneumoniae, 200047, read-out: MIC compounds of the invention alone
Method in brief: as §1

E. coli UFR61O = experiment: MIC of compounds alone, broth microdilution; conditions: Escherichia coli, UFR61O, read-out: MIC compounds of the invention alone
Method in brief: as §1

C. murliniae 210102 [6] = experiment: MIC of compounds alone, broth microdilution; conditions: strain 210102 (VIM-4); read-out: MIC compounds of the invention alone
Method in brief: as §1

K. oxytoca UFR21 = experiment: MIC of compounds alone, broth microdilution; conditions: Klebsiella oxytoca, UFR21, read-out: MIC compounds of the invention alone
Method in brief: as §1

P. aeruginosa UFR47 [7] = experiment: MIC of compounds alone, broth microdilution; conditions: Pseudomonas aeruginosa; strain UFR47 (VIM-1); read-out: MIC compounds of the invention alone
Method in brief: as §1

K. pneumoniae UFR77 = experiment: MIC of compounds alone, broth microdilution; conditions: Klebsiella pneumoniae; strain UFR77 (CMY-2); read-out: MIC compounds of the invention alone
Method in brief: as §1

E. coli UFR74 = experiment: MIC of compounds alone, broth microdilution; conditions: Escherichia coli, UFR74, read-out: MIC compounds of the invention alone
Method in brief: as §1

E. coli UFR32 = experiment: MIC of compounds alone, broth microdilution; conditions: Escherichia coli, UFR32, read-out: MIC compounds of the invention alone
Method in brief: as §1

E. cloacae 260508 = experiment: MIC of compounds alone, broth microdilution; conditions: Enterobacter cloacae, 260508, read-out: MIC compounds of the invention alone
Method in brief: as §1

P. aeruginosa UFR35 = experiment: MIC of compounds alone, broth microdilution; conditions: Pseudomonas aeruginosa; strain UFR35 (OXA-23); read-out: MIC compounds of the invention alone
Method in brief: as §1

P. aeruginosa UFR92 = experiment: MIC of compounds alone, broth microdilution; conditions: Pseudomonas aeruginosa, UFR92, read-out: MIC compounds of the invention alone
Method in brief: as §1

P. aeruginosa UFR93 [8] = experiment: MIC of compounds alone, broth microdilution; conditions: Pseudomonas aeruginosa, UFR93, read-out: MIC compounds of the invention alone
Method in brief: as §1

K. pneumoniae UFR24 = experiment: MIC of compounds alone, broth microdilution; conditions: Klebsiella pneumoniae, UFR24, read-out: MIC compounds of the invention alone
Method in brief: as §1

E. cloacae UFR85 = experiment: MIC of compounds alone, broth microdilution; conditions: Enterobacter cloacae, UFR85, read-out: MIC compounds of the invention alone
Method in brief: as §1

P. aeruginosa UFR48 [9] = experiment: MIC of compounds alone, broth microdilution; conditions: Pseudomonas aeruginosa; strain UFR48 (VIM-2); read-out: MIC compounds of the invention alone
Method in brief: as §1

K. pneumoniae 160143 = experiment: MIC of compounds alone, broth microdilution; conditions: Klebsiella pneumoniae, 160143, read-out: MIC compounds of the invention alone
Method in brief: as §1

E. cloacae UFR70 = experiment: MIC of compounds alone, broth microdilution; conditions: Enterobacter cloacae, UFR70, read-out: MIC compounds of the invention alone
Method in brief: as §1

E. cloacae UFR38 = experiment: MIC of compounds alone, broth microdilution; conditions: Enterobacter cloacae; strain UFR38 (CTX-M-15, NDM-1); read-out: MIC compounds of the invention alone
Method in brief: as §1

P. aeruginosa UFR59 [10] = experiment: MIC of compounds alone, broth microdilution; conditions: Pseudomonas aeruginosa; strain UFR59 (IMP-29); read-out: MIC compounds of the invention alone
Method in brief: as §1

E. coli UFR18 = experiment: MIC of compounds alone, broth microdilution; conditions: Escherichia coli; strain UFR18 (CTX-M-15, OXA-204); read-out: MIC compounds of the invention alone
Method in brief: as §1

K. pneumoniae UFR68 = experiment: MIC of compounds alone, broth microdilution; conditions: Klebsiella pneumoniae, UFR68, read-out: MIC compounds of the invention alone
Method in brief: as §1

P. aeruginosa UFR59 [11] = experiment: MIC of ceftazidime alone and in combination with compounds (synergy), broth microdilution; conditions: MIC of ceftazidime with compound fixed at 4 μg/mL; strain UFR59 (IMP-29)
C. murliniae 210102 [12] = experiment: as above; conditions: MIC of ceftazidime with compound fixed at 4 μg/mL; strain 210102 (VIM-4)

Compound | MIC, combination of CAZ and compounds of the invention at 4 μg/mL (E. coli UFR52 [1]) [µg/mL] | MIC, combination of CAZ and compounds of the invention at 4 μg/mL (P. aeruginosa UFR47 [2]) [µg/mL] | MIC, combination of CAZ and compounds of the invention at 4 μg/mL (P. aeruginosa UFR93 [3]) [µg/mL] | MIC, combination of CAZ and compounds of the invention at 4 μg/mL (P. aeruginosa UFR48 [4]) [µg/mL] | MIC (P. aeruginosa UFR90) [µg/mL] | MIC (E. coli UFR52 [5]) [µg/mL] | MIC (K. pneumoniae 200047) [µg/mL] | MIC (E. coli UFR61O) [µg/mL] | MIC (C. murliniae 210102 [6]) [µg/mL] | MIC (K. oxytoca UFR21) [µg/mL] | MIC (P. aeruginosa UFR47 [7]) [µg/mL] | MIC (K. pneumoniae UFR77) [µg/mL] | MIC (E. coli UFR74) [µg/mL] | MIC (E. coli UFR32) [µg/mL] | MIC (E. cloacae 260508) [µg/mL] | MIC (P. aeruginosa UFR35) [µg/mL] | MIC (P. aeruginosa UFR92) [µg/mL] | MIC (P. aeruginosa UFR93 [8]) [µg/mL] | MIC (K. pneumoniae UFR24) [µg/mL] | MIC (E. cloacae UFR85) [µg/mL] | other results
NC[C@@H]1CC(=NOCC(N)=O)[C@@H]2CN1C(=O)N2OS(=O)(=O)O (mixture of isomers) [Example 5, sodium and 2,2,2-trifluroacetate [(2S,5S)-4-(2-amino-2-oxo-ethoxy)imino-2-(azaniumylmethyl)-7-oxo-1,6-diazabicyclo[3.2.1]octan-6-yl] sulfate] | ≤0.25 | <0.25 | <0.25 | <0.25 | 1 | 8 | > 32 | 0.5 | > 32 | > 32 | 2 | > 32 | > 32 | 1 | 32 | 1 | 2 | 4 | > 32 | > 32 | MIC (P. aeruginosa UFR48 [9]): 2 µg/mL; MIC (K. pneumoniae 160143): > 32 µg/mL; MIC (E. cloacae UFR70): > 32 µg/mL; MIC (E. cloacae UFR38): 0.125 µg/mL; MIC (P. aeruginosa UFR59 [10]): 4 µg/mL; MIC (E. coli UFR18): 0.25 µg/mL; MIC (K. pneumoniae UFR68): > 32 µg/mL; MIC, combination of CAZ and compounds of the invention at 4 μg/mL (P. aeruginosa UFR59 [11]): <0.25 µg/mL; MIC, combination of CAZ and compounds of the invention at 4 μg/mL (C. murliniae 210102 [12]): 1 µg/mL
NC[C@@H]1CC(=O)[C@@H]2CN1C(=O)N2OS(=O)(=O)O [Example 6, 2,2,2-trifluroacetate and sodium [(2S,5S)-2-(azaniumylmethyl)-4,7-dioxo-1,6-diazabicyclo[3.2.1]octan-6-yl] sulfate] | <0.25 | ≤0.25 | 0.5 | ≤0.25 | 4 | 2 | > 32 | 4 | > 32 | > 32 | 4 | > 32 | > 32 | 1 | > 32 | 4 | 4 | 8 | > 32 | > 32 | MIC (P. aeruginosa UFR48 [9]): 8 µg/mL; MIC (K. pneumoniae 160143): > 32 µg/mL; MIC (E. cloacae UFR70): > 32 µg/mL; MIC (E. cloacae UFR38): 0.5 µg/mL; MIC (P. aeruginosa UFR59 [10]): 16 µg/mL; MIC (E. coli UFR18): 1 µg/mL; MIC (K. pneumoniae UFR68): > 32 µg/mL; MIC, combination of CAZ and compounds of the invention at 4 μg/mL (P. aeruginosa UFR59 [11]): ≤0.25 µg/mL; MIC, combination of CAZ and compounds of the invention at 4 μg/mL (C. murliniae 210102 [12]): 4 µg/mL
